Molecules are shown by their SMILES. pKi: −log10 of the molar value. *1 amine or outer side, *2 acyl side, *3 side chain or, on linkers, in order; H or OH if unused. Where a SMILES comes first, the peptide text is derived from it. Side-chain parts run from the residue outwards. [ ]: non-standard residue; d: D form. The star is where a group is joined. C18 diacid = O=C(O)CCCCCCCCCCCCCCCCC(=O)*; γGlu = O=C(O)[C@H](CCC(=O)[*:2])N[*:1]; 4Pal = N[C@@H](Cc1ccncc1)C(=O)O; AEEA = NCCOCCOCC(=O)O; Aib = CC(C)(N)C(=O)O

In this experiment the target is T1, human GLP-1R (Homo sapiens, UniProt P43220).
T1 construct: expressed in transfected cells; crude membranes
T1 sequence (P43220 24-463): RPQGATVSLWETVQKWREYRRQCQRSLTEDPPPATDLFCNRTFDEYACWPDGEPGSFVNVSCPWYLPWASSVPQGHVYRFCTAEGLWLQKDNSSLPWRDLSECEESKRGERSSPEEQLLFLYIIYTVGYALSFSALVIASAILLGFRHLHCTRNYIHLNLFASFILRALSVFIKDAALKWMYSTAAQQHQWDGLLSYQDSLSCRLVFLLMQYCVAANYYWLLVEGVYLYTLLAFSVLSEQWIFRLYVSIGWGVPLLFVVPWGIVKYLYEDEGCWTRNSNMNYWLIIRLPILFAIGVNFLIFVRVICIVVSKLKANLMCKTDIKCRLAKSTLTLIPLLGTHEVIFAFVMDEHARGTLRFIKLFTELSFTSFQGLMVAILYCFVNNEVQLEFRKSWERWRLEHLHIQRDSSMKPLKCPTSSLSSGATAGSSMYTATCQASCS
The experiment is described as follows: [125I]-GLP-1 binding, SPA with WGA beads, 0.1% bacitracin. Particulars: geometric mean, read-out: hGLP1R Ki. A digest of the protocol: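 Binding buffer was 25 mM HEPES pH 7.4 with 2.5 mM CaCl2, 1 mM MgCl2, 0.1% (w/v) bacitracin, 0.003% Tween-20 and EDTA-free protease inhibitors. Four-parameter regression gave IC50, converted to Ki (geometric mean, SEM, n independent days).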
As to `CC[C@H](C)[C@H](NC(=O)[C@H](CO)NC(=O)[C@H](Cc1ccc(O)cc1)NC(=O)[C@H](CC(=O)O)NC(=O)[C@H](CO)NC(=O)[C@@H](NC(=O)[C@H](Cc1ccccc1)NC(=O)[C@@H](NC(=O)CNC(=O)[C@H](CCC(=O)O)NC(=O)[C@@H](C)NC(=O)[C@@H](N)Cc1ccc(O)cc1)[C@@H](C)O)[C@@H](C)CC)C(=O)N[C@@H](CC(C)C)C(=O)N[C@@H](CC(C)C)C(=O)N[C@@H](CC(=O)O)C(=O)N[C@@H](CCCCN)C(=O)N[C@@H](CCCCNC(=O)COCCOCCNC(=O)COCCOCCNC(=O)CC[C@H](NC(=O)CCCCCCCCCCCCCCCCC(=O)O)C(=O)O)C(=O)N[C@@H](C)C(=O)N[C@@H](CCC(N)=O)C(=O)NC(C)(C)C(=O)N[C@@H](CC(=O)O)C(=O)N[C@@H](Cc1ccccc1)C(=O)N[C@H](C(=O)N[C@@H](CC(N)=O)C(=O)N[C@@H](Cc1ccncc1)C(=O)N[C@@H](CC(C)C)C(=O)N[C@@H](CC(C)C)C(=O)N[C@@H](C)C(=O)N[C@@H](CCC(N)=O)C(=O)NCC(=O)N1CCC[C@H]1C(=O)N[C@@H](CO)C(=O)N[C@@H](CO)C(=O)NCC(=O)N[C@@H](C)C(=O)N1CCC[C@H]1C(=O)N1CCC[C@H]1C(=O)N1CCC[C@H]1C(=O)N[C@@H](CO)C(N)=O)C(C)C` [Example 18] (H-Y[dA]EGTFISDYSILLDKK([AEEA-AEEA-γGlu-C18 diacid])AQ[Aib]DFVN[4Pal]LLAQGPSSGAPPPS-NH2), the negative-log Ki (pKi) is 6.80.

For the compound `CC[C@H](C)[C@H](NC(=O)[C@H](CO)NC(=O)[C@H](Cc1ccc(O)cc1)NC(=O)[C@H](CC(=O)O)NC(=O)[C@H](CO)NC(=O)[C@@H](NC(=O)[C@H](Cc1ccccc1)NC(=O)[C@@H](NC(=O)CNC(=O)[C@H](CCC(=O)O)NC(=O)[C@@H](C)NC(=O)[C@@H](N)Cc1ccc(O)cc1)[C@@H](C)O)[C@@H](C)CC)C(=O)N[C@@H](CC(C)C)C(=O)N[C@@H](CC(C)C)C(=O)N[C@@H](CC(=O)O)C(=O)N[C@@H](CCCCN)C(=O)N[C@@H](CCCCNC(=O)COCCOCCNC(=O)COCCOCCNC(=O)CC[C@H](NC(=O)CCCCCCCCCCCCCCCCC(=O)O)C(=O)O)C(=O)N[C@@H](C)C(=O)N[C@@H](CCC(N)=O)C(=O)NC(C)(C)C(=O)N[C@@H](CC(=O)O)C(=O)N[C@@H](Cc1ccccc1)C(=O)N[C@H](C(=O)N[C@@H](CC(N)=O)C(=O)N[C@@H](Cc1c[nH]c2ccccc12)C(=O)N[C@@H](CC(C)C)C(=O)N[C@@H](CC(C)C)C(=O)N[C@@H](C)C(=O)NCC(=O)NCC(=O)N1CCC[C@H]1C(=O)N[C@@H](CO)C(=O)N[C@@H](CO)C(=O)NCC(=O)N[C@@H](C)C(=O)N1CCC[C@H]1C(=O)N1CCC[C@H]1C(=O)N1CCC[C@H]1C(=O)N[C@@H](CO)C(N)=O)C(C)C` [Example 19] (H-Y[dA]EGTFISDYSILLDKK([AEEA-AEEA-γGlu-C18 diacid])AQ[Aib]DFVNWLLAGGPSSGAPPPS-NH2), the negative-log Ki (pKi) is 7.82.

With `CC[C@H](C)[C@H](NC(=O)[C@H](CO)NC(=O)[C@H](Cc1ccc(O)cc1)NC(=O)[C@H](CC(=O)O)NC(=O)[C@H](CO)NC(=O)[C@@H](NC(=O)[C@H](Cc1ccccc1)NC(=O)[C@@H](NC(=O)CNC(=O)[C@H](CCC(=O)O)NC(=O)[C@@H](C)NC(=O)[C@@H](N)Cc1ccc(O)cc1)[C@@H](C)O)[C@@H](C)CC)C(=O)N[C@@H](CC(C)C)C(=O)N[C@@H](CC(C)C)C(=O)N[C@@H](CC(=O)O)C(=O)N[C@@H](CCCCN)C(=O)N[C@@H](CCCCNC(=O)COCCOCCNC(=O)COCCOCCNC(=O)CC[C@H](NC(=O)CCCCCCCCCCCCCCCCC(=O)O)C(=O)O)C(=O)N[C@@H](C)C(=O)N[C@@H](CCC(N)=O)C(=O)NC(C)(C)C(=O)N[C@@H](CCC(=O)O)C(=O)N[C@@H](Cc1ccccc1)C(=O)N[C@H](C(=O)N[C@@H](CC(N)=O)C(=O)N[C@@H](Cc1c[nH]c2ccccc12)C(=O)N[C@@H](CC(C)C)C(=O)N[C@@H](CC(C)C)C(=O)N[C@@H](C)C(=O)N[C@@H](CCC(N)=O)C(=O)NCC(=O)N1CCC[C@H]1C(=O)N[C@@H](CO)C(=O)N[C@@H](CO)C(=O)NCC(=O)N[C@@H](C)C(=O)N1CCC[C@H]1C(=O)N1CCC[C@H]1C(=O)N1CCC[C@H]1C(=O)N[C@@H](CO)C(N)=O)C(C)C` [Example 20] (H-Y[dA]EGTFISDYSILLDKK([AEEA-AEEA-γGlu-C18 diacid])AQ[Aib]EFVNWLLAQGPSSGAPPPS-NH2), the negative-log Ki (pKi) was 7.10.

Usually pKi stands for −log10 of the Ki, conventionally taken in molar units.

The values are drawn from US12723063B2, “GIPR-agonist compounds” (Eli Lilly and Company, priority 2019, dated 2026).
